From article PMC6732362, “Cancer-associated variants of human NQO1: impacts on inhibitor binding and cooperativity” (Bioscience Reports, 2019)

Assays:
[1] = target: T1, human NQO1 p.R139W (Homo sapiens, UniProt P15559, R139W); assay: biochemical
[2] = target: T2, human wild-type NQO1 (Homo sapiens, UniProt P15559); assay: Differential scanning fluorimetry (FAD release on thermal denaturation); type: binding; set-up: hexahistidine; made in house; host or cells: Escherichia coli; conditions: for effect on stability towards thermal denaturation (ΔTm): wild-type NQO1, concentration-dependent
[3] = target: T2, human wild-type NQO1
[4] = target: T1, human NQO1 p.R139W; assay: Differential scanning fluorimetry (FAD release on thermal denaturation); type: binding; set-up: hexahistidine; made in house; host or cells: Escherichia coli; conditions: for effect on stability towards thermal denaturation (ΔTm): p.R139W, concentration-dependent
[5] = target: T2, human wild-type NQO1; assay: biochemical
[6] = target: T1, human NQO1 p.R139W
[7] = target: T3, human NQO1 p.P187S (Homo sapiens, UniProt P15559, P187S); assay: Differential scanning fluorimetry (FAD release on thermal denaturation); type: binding
T3 construct: hexahistidine; made in house; host or cells: Escherichia coli

[8] = wild-type, Dixon and [S]/v plots (data not shown)

T2 sequence (P15559 whole entry): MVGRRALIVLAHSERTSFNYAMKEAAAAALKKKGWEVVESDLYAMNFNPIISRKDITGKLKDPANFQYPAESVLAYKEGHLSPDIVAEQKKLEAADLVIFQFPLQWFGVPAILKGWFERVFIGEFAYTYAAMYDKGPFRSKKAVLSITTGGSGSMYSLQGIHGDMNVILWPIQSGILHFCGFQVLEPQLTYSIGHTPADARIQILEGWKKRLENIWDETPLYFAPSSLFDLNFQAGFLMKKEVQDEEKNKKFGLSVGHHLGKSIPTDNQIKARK
T1 sequence (P15559 whole entry R139W): as the sequence (P15559 whole entry) above, with R139W counted along it
T3 sequence (P15559 whole entry P187S): as the sequence (P15559 whole entry) above, with P187S counted along it

| Ki [1] [mM] | Kd ([2]; wild-type NQO1 2 μM dimer, from ΔTm vs inhibitor concentration, HEPES-OH pH 7.3, read-out: KD,app) [mM] | effect on stability towards thermal denaturation (ΔTm) [2] | type of inhibition ([3]; NQO1, Dixon and [S]/v plots) | Hill coefficient (h) ([3]; wild-type NQO1, no additional FAD, 70 μM DCPIP, 300 μM NADH, mean of three Hill plots ± SD) | Kd ([4]; p.R139W 2 μM dimer, from ΔTm vs inhibitor concentration, HEPES-OH pH 7.3, read-out: KD,app) [mM] | effect on stability towards thermal denaturation (ΔTm) [4] | Ki [5] [mM] | Hill coefficient (h) ([6]; p.R139W, no additional FAD, 70 μM DCPIP, 300 μM NADH, mean of three Hill plots ± SD) | effect on stability towards thermal denaturation (ΔTm) [7] | type of inhibition with respect to NADH [3, 8] | type of inhibition with respect to NADPH [3, 8] | type of inhibition with respect to NADH ([6]; p.R139W (data not shown)) | type of inhibition with respect to NADPH ([6]; p.R139W (data not shown)) | SMILES |
| --- | --- | --- | --- | --- | --- | --- | --- | --- | --- | --- | --- | --- | --- | --- |
| 13.5 ± 3.22 | 6 ± 0.9 | stabilized | mixed | 0.91 ± 0.06 | 18.2 ± 5.2 | stabilized | 14 ± 4.34 | 0.92 ± 0.05 | no detectable effect |  |  |  |  | NC(=O)c1cccnc1 [Nicotinamide, nicotinamide] |
|  |  | destabilised |  |  |  | destabilised | 0.375 ± 0.129 |  | destabilised | mixed | competitive | uncompetitive | mixed | Oc1ccc(/C=C/c2cc(O)cc(O)c2)cc1 [Resveratrol, resveratrol] |
